# Measurements as given in PubChem BioAssay (NCI).
#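 48-hour exposure; five concentrations; linearly interpolated endpoints. At the GI50, growth is halved. TGI denotes the concentration required for complete inhibition of growth.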
# Legend:
# Test in all cases: DTP human tumour cell line panel, 48 h
# A498 renal = system: A498 renal
# A549 NSCLC = system: A549 NSCLC
# ACHN renal = system: ACHN renal
# BT-549 breast = system: BT-549 breast
# COLO 205 colon = system: COLO 205 colon
# DU-145 prostate = system: DU-145 prostate
# HCC-2998 colon = system: HCC-2998 colon
# HCT-116 colon = system: HCT-116 colon
# HCT-15 colon = system: HCT-15 colon
# HOP-62 NSCLC = system: HOP-62 NSCLC
# HOP-92 NSCLC = system: HOP-92 NSCLC
# HS 578T breast = system: HS 578T breast
# HT29 colon = system: HT29 colon
# K-562 leukemia = system: K-562 leukemia
# KM12 colon = system: KM12 colon
# M14 melanoma = system: M14 melanoma
# MCF7 breast = system: MCF7 breast
# MDA-MB-231 breast = system: MDA-MB-231 breast
# MDA-MB-435 = system: MDA-MB-435
# MOLT-4 leukemia = system: MOLT-4 leukemia
# NCI-H226 lung = system: NCI-H226 lung
# NCI-H460 lung = system: NCI-H460 lung
# NCI-H522 lung = system: NCI-H522 lung
# NCI/ADR-RES ovarian = system: NCI/ADR-RES ovarian
# OVCAR-3 ovarian = system: OVCAR-3 ovarian
# OVCAR-4 ovarian = system: OVCAR-4 ovarian
# OVCAR-5 ovarian = system: OVCAR-5 ovarian
# OVCAR-8 ovarian = system: OVCAR-8 ovarian
# PC-3 prostate = system: PC-3 prostate
# RPMI-8226 leukemia = system: RPMI-8226 leukemia
# RXF 393 renal = system: RXF 393 renal
# SF-268 CNS = system: SF-268 CNS
# SK-MEL-2 melanoma = system: SK-MEL-2 melanoma
# SK-MEL-28 melanoma = system: SK-MEL-28 melanoma
# SK-MEL-5 melanoma = system: SK-MEL-5 melanoma
# SK-OV-3 ovarian = system: SK-OV-3 ovarian
# SN12C renal = system: SN12C renal
# SNB-19 CNS = system: SNB-19 CNS
# SNB-75 CNS = system: SNB-75 CNS
# SR leukemia = system: SR leukemia
# SW-620 colon = system: SW-620 colon
# T-47D breast = system: T-47D breast
# TK-10 renal = system: TK-10 renal
# U251 CNS = system: U251 CNS
# UACC-257 melanoma = system: UACC-257 melanoma
# UACC-62 melanoma = system: UACC-62 melanoma
# 786-0 renal = system: 786-0 renal
# CAKI-1 renal = system: CAKI-1 renal
# CCRF-CEM leukemia = system: CCRF-CEM leukemia
# HL-60(TB) leukemia = system: HL-60(TB) leukemia
# IGROV1 ovarian = system: IGROV1 ovarian
# LOX IMVI melanoma = system: LOX IMVI melanoma
# MALME-3M melanoma = system: MALME-3M melanoma
# NCI-H23 lung = system: NCI-H23 lung
# SF-295 CNS = system: SF-295 CNS
# SF-539 CNS = system: SF-539 CNS
# UO-31 renal = system: UO-31 renal
smiles,measurement,setting,value
C#CC(F)(F)[C@]1(O)CC[C@H]2[C@@H]3CCC4=CC(=O)CCC4=C3[C@@H](c3ccc(C(C)=O)cc3)C[C@@]21C,GI50,A498 renal,23.1 µM
same,TGI,A498 renal,84.8 µM
same,GI50,A549 NSCLC,25.9 µM
same,TGI,A549 NSCLC,> 100 µM
same,GI50,ACHN renal,10.1 µM
same,TGI,ACHN renal,97 µM
same,GI50,BT-549 breast,15.5 µM
same,TGI,BT-549 breast,55.2 µM
same,GI50,COLO 205 colon,13.1 µM
same,TGI,COLO 205 colon,38.6 µM
same,GI50,DU-145 prostate,20.1 µM
same,TGI,DU-145 prostate,95.1 µM
same,GI50,HCC-2998 colon,31.2 µM
same,TGI,HCC-2998 colon,> 100 µM
same,GI50,HCT-116 colon,14.1 µM
same,TGI,HCT-116 colon,42.6 µM
same,GI50,HCT-15 colon,14.3 µM
same,TGI,HCT-15 colon,56.8 µM
same,GI50,HOP-62 NSCLC,18.7 µM
same,TGI,HOP-62 NSCLC,73.8 µM
same,GI50,HOP-92 NSCLC,45.6 nM
same,TGI,HOP-92 NSCLC,356 nM
same,GI50,HS 578T breast,17 µM
same,TGI,HS 578T breast,> 95.2 µM
same,GI50,HT29 colon,109 nM
same,TGI,HT29 colon,> 50.5 µM
same,GI50,K-562 leukemia,8.64 µM
same,TGI,K-562 leukemia,> 100 µM
same,GI50,KM12 colon,123 nM
same,TGI,KM12 colon,52.9 µM
same,GI50,M14 melanoma,16.9 µM
same,TGI,M14 melanoma,> 84.9 µM
same,GI50,MCF7 breast,2640 nM
same,TGI,MCF7 breast,63 µM
same,GI50,MDA-MB-231 breast,15.7 µM
same,TGI,MDA-MB-231 breast,> 87.5 µM
same,GI50,MDA-MB-435,13.9 µM
same,TGI,MDA-MB-435,52 µM
same,GI50,MOLT-4 leukemia,3900 nM
same,TGI,MOLT-4 leukemia,63.4 µM
same,GI50,NCI-H226 lung,21.7 µM
same,TGI,NCI-H226 lung,71.3 µM
same,GI50,NCI-H460 lung,21.5 µM
same,TGI,NCI-H460 lung,> 68.2 µM
same,GI50,NCI-H522 lung,16.7 nM
same,TGI,NCI-H522 lung,33.1 nM
same,GI50,NCI/ADR-RES ovarian,13.8 µM
same,TGI,NCI/ADR-RES ovarian,59 µM
same,GI50,OVCAR-3 ovarian,289 nM
same,TGI,OVCAR-3 ovarian,42.8 µM
same,GI50,OVCAR-4 ovarian,18.9 µM
same,TGI,OVCAR-4 ovarian,97.1 µM
same,GI50,OVCAR-5 ovarian,28.3 µM
same,TGI,OVCAR-5 ovarian,> 100 µM
same,GI50,OVCAR-8 ovarian,21.1 µM
same,TGI,OVCAR-8 ovarian,> 90.6 µM
same,GI50,PC-3 prostate,10 µM
same,TGI,PC-3 prostate,97.9 µM
same,GI50,RPMI-8226 leukemia,333 nM
same,TGI,RPMI-8226 leukemia,6.25 µM
same,GI50,RXF 393 renal,13.4 µM
same,TGI,RXF 393 renal,39.8 µM
same,GI50,SF-268 CNS,423 nM
same,TGI,SF-268 CNS,> 100 µM
same,GI50,SK-MEL-2 melanoma,13.2 µM
same,TGI,SK-MEL-2 melanoma,32.8 µM
same,GI50,SK-MEL-28 melanoma,16.2 µM
same,TGI,SK-MEL-28 melanoma,> 72.4 µM
same,GI50,SK-MEL-5 melanoma,8.47 µM
same,TGI,SK-MEL-5 melanoma,21.6 µM
same,GI50,SK-OV-3 ovarian,20.7 µM
same,TGI,SK-OV-3 ovarian,> 100 µM
same,GI50,SN12C renal,25.1 µM
same,TGI,SN12C renal,> 95300 nM
same,GI50,SNB-19 CNS,28.4 µM
same,TGI,SNB-19 CNS,> 100 µM
same,GI50,SNB-75 CNS,3820 nM
same,TGI,SNB-75 CNS,> 100000 nM
same,GI50,SR leukemia,868 nM
same,TGI,SR leukemia,37 µM
same,GI50,SW-620 colon,24.2 µM
same,TGI,SW-620 colon,> 100000 nM
same,GI50,T-47D breast,< 13.5 nM
same,TGI,T-47D breast,36.1 µM
same,GI50,TK-10 renal,24.9 µM
same,TGI,TK-10 renal,71.4 µM
same,GI50,U251 CNS,17.7 µM
same,TGI,U251 CNS,> 92900 nM
same,GI50,UACC-257 melanoma,21.1 µM
same,TGI,UACC-257 melanoma,88.5 µM
same,GI50,UACC-62 melanoma,12.5 µM
same,TGI,UACC-62 melanoma,33.8 µM
O=C(CCl)N1c2ccccc2Sc2ccc3ccccc3c21,GI50,786-0 renal,1440 nM
same,TGI,786-0 renal,3.03 µM
same,GI50,A498 renal,1.73 µM
same,TGI,A498 renal,3.31 µM
same,GI50,A549 NSCLC,1.98 µM
same,TGI,A549 NSCLC,4.75 µM
same,GI50,ACHN renal,0.801 µM
same,TGI,ACHN renal,2.01 µM
same,GI50,BT-549 breast,1.56 µM
same,TGI,BT-549 breast,3.52 µM
same,GI50,CAKI-1 renal,498 nM
same,TGI,CAKI-1 renal,950 nM
same,GI50,CCRF-CEM leukemia,220 nM
same,TGI,CCRF-CEM leukemia,533 nM
same,GI50,COLO 205 colon,1.69 µM
same,TGI,COLO 205 colon,3.14 µM
same,GI50,DU-145 prostate,1.53 µM
same,TGI,DU-145 prostate,2.9 µM
same,GI50,HCC-2998 colon,1.8 µM
same,TGI,HCC-2998 colon,3.25 µM
same,GI50,HCT-116 colon,0.652 µM
same,TGI,HCT-116 colon,2.06 µM
same,GI50,HCT-15 colon,1.09 µM
same,TGI,HCT-15 colon,2.53 µM
same,GI50,HL-60(TB) leukemia,1070 nM
same,TGI,HL-60(TB) leukemia,5.13 µM
same,GI50,HOP-62 NSCLC,1.63 µM
same,TGI,HOP-62 NSCLC,3.05 µM
same,GI50,HOP-92 NSCLC,1160 nM
same,TGI,HOP-92 NSCLC,2510 nM
same,GI50,HS 578T breast,2.04 µM
same,TGI,HS 578T breast,6.56 µM
same,GI50,HT29 colon,1280 nM
same,TGI,HT29 colon,4.58 µM
same,GI50,IGROV1 ovarian,567 nM
same,TGI,IGROV1 ovarian,1500 nM
same,GI50,K-562 leukemia,0.659 µM
same,TGI,K-562 leukemia,3.49 µM
same,GI50,KM12 colon,1820 nM
same,TGI,KM12 colon,3.35 µM
same,GI50,LOX IMVI melanoma,143 nM
same,TGI,LOX IMVI melanoma,299 nM
same,GI50,M14 melanoma,1.66 µM
same,TGI,M14 melanoma,3.43 µM
same,GI50,MALME-3M melanoma,352 nM
same,TGI,MALME-3M melanoma,1320 nM
same,GI50,MCF7 breast,1490 nM
same,TGI,MCF7 breast,3.29 µM
same,GI50,MDA-MB-231 breast,1.64 µM
same,TGI,MDA-MB-231 breast,3.14 µM
same,GI50,MDA-MB-435,1.46 µM
same,TGI,MDA-MB-435,3.01 µM
same,GI50,MOLT-4 leukemia,478 nM
same,GI50,NCI-H226 lung,2.36 µM
same,TGI,NCI-H226 lung,5.5 µM
same,GI50,NCI-H23 lung,1180 nM
same,TGI,NCI-H23 lung,2540 nM
same,GI50,NCI-H460 lung,1.89 µM
same,TGI,NCI-H460 lung,3.82 µM
same,GI50,NCI-H522 lung,509 nM
same,TGI,NCI-H522 lung,1100 nM
same,GI50,NCI/ADR-RES ovarian,2.18 µM
same,TGI,NCI/ADR-RES ovarian,5.26 µM
same,GI50,OVCAR-3 ovarian,1360 nM
same,TGI,OVCAR-3 ovarian,2.72 µM
same,GI50,OVCAR-4 ovarian,0.659 µM
same,TGI,OVCAR-4 ovarian,2.9 µM
same,GI50,OVCAR-5 ovarian,1.48 µM
same,TGI,OVCAR-5 ovarian,3.03 µM
same,GI50,OVCAR-8 ovarian,1.64 µM
same,TGI,OVCAR-8 ovarian,3.71 µM
same,GI50,PC-3 prostate,1.47 µM
same,TGI,PC-3 prostate,3.06 µM
same,GI50,RPMI-8226 leukemia,1320 nM
same,TGI,RPMI-8226 leukemia,4.06 µM
same,GI50,RXF 393 renal,1.49 µM
same,TGI,RXF 393 renal,2.83 µM
same,GI50,SF-268 CNS,1640 nM
same,TGI,SF-268 CNS,3.16 µM
same,GI50,SF-295 CNS,1680 nM
same,TGI,SF-295 CNS,3.15 µM
same,GI50,SF-539 CNS,1720 nM
same,TGI,SF-539 CNS,3.15 µM
same,GI50,SK-MEL-2 melanoma,1.97 µM
same,TGI,SK-MEL-2 melanoma,3.8 µM
same,GI50,SK-MEL-28 melanoma,1.65 µM
same,TGI,SK-MEL-28 melanoma,3.01 µM
same,GI50,SK-MEL-5 melanoma,1.6 µM
same,TGI,SK-MEL-5 melanoma,2.96 µM
same,GI50,SK-OV-3 ovarian,1.79 µM
same,TGI,SK-OV-3 ovarian,3.18 µM
same,GI50,SN12C renal,1.59 µM
same,TGI,SN12C renal,2980 nM
same,GI50,SNB-19 CNS,1.58 µM
same,TGI,SNB-19 CNS,3.09 µM
same,GI50,SNB-75 CNS,1160 nM
same,TGI,SNB-75 CNS,2400 nM
same,GI50,SR leukemia,634 nM
same,TGI,SR leukemia,9.74 µM
same,GI50,SW-620 colon,1.27 µM
same,TGI,SW-620 colon,2890 nM
same,GI50,T-47D breast,1660 nM
same,TGI,T-47D breast,3.69 µM
same,GI50,TK-10 renal,1.54 µM
same,TGI,TK-10 renal,2.92 µM
same,GI50,U251 CNS,1.55 µM
same,TGI,U251 CNS,2950 nM
same,GI50,UACC-257 melanoma,1.48 µM
same,TGI,UACC-257 melanoma,2.87 µM
same,GI50,UACC-62 melanoma,1.53 µM
same,TGI,UACC-62 melanoma,2.88 µM
same,GI50,UO-31 renal,281 nM
same,TGI,UO-31 renal,1070 nM
